Laboratory results from patent US20260297508A1, “MODULATORS OF PROTEIN SECRETION” (SANOFI, priority 2023, published 2026).

Tests used:
[1] = system: biotin-induced antibody release, U2OS clone #7 cells; experiment: High-throughput RUSH screen: biotin-induced cytoplasmic GFP signal decay (antibody release), U2OS clone #7; type: cell-based, human; conditions: for secretion activator at both low and high concentration (consistently decreased fluorescent signal, among 20 best activators): Prestwick library; for decrease of intracytoplasmic GFP fluorescence signal (biotin-stimulated RUSH system): screening campaigns, summary
Protocol: FIGS. 4A-4C show the high-throughput screening of chemical compound libraries for the identification of modulators of protein secretion. […] U2OS clone #7 is plated in 384-well plates and incubated for 24 h before treatment with each compound of the Prestwick, ICCB Known Bioactives, or Autophagy Compound Library at 2 concentrations, low and high (with a 10-fold difference). […] The results of the Prestwick library screening at the low drug concentration are plotted. Brefeldin A was used as a positive control of the inhibition of secretion. The compounds causing a cytoplasmic GFP intensity below that observed for biotin-only treated cells are potential enhancers of protein secretion.
U2OS cells were transfected with the streptavidin-KDEL plasmid using Lipofectamine 2000 (Thermo Fisher Scientific) and selected in medium supplemented with G418 (400 μg/mL, Gibco-Invitrogen) for 2 weeks. Limiting dilution in 96-well plates was used for single cell isolation from the selected pool. Clones were amplified and selected based on streptavidin immunofluorescence. Clone #BD6 showing the highest streptavidin expression was further expanded in medium supplemented with G418 (200 μg/mL) and transfected with the anti-PD-L1 IgG RUSH plasmid using Lipofectamine 2000 and selected in medium supplemented with G418 (200 μg/mL) and hygromycin (100 μg/mL, Santa Cruz Biotechnology) for 2 weeks. Limiting dilution in 96-well plates was used for single cell isolation from clone #BD6-derived selected pool. Clones were amplified and selected based on GFP fluorescence and clone #7 was selected for further characterization and screening campaigns.
U2OS clone #7 cells were seeded in black 384-well imaging plates (Greiner bio one), 2,000 cells/well, and incubated for 24 h at 37° C. in a humidified incubator with 5% CO2. Cells were treated on the next day with the compounds from either the Prestwick library at […], the ICCB Known Bioactives library at 1/100^e or 1/1000^e, or the autophagy compound library at 10 μM or 1 μM for 4 h. […] Cells were then fixed as described above and processed for subsequent automated image acquisition using a robot-assisted IXM XL BioImager (Molecular Devices, Sunnyvale, CA, USA) equipped with a Sola light source (Lumencor, Beaverton, OR, USA), adapted excitation and emission filters (Semrock) a 16-bit monochrome sCMOS PCO.edge 5.5 camera (PCO, Kelheim, Germany). A 20× PlanAPO objective (Nikon, Tokyo, Japan) was used to acquire a minimum of 4 view fields in each well. The acquired images were processed using the open-access R software (https://www.r-project.org) with the help of freely available packages EBImage (available on the Bioconductor repository https://www.bioconductor.org), and RBioFormats (https://github.com/aoles/RBioFormats), and the custom packages MetaxpR (https://github.com/asauvat/MetaxpR) and MorphR (https://github.com/kroemerlab/MorphR). Nuclei were first detected using Hoechst 33342 signal and used as a marker to detect cytoplasmic areas based on GFP signal, allowing for the evaluation of cytoplasmic GFP intensity. Data were thereafter extracted and statistically evaluated using R (https://www.r-project.org). Data were normalized using negative and positive controls, reduced and transformed into a Z-score. The experiments were repeated manually at low scale with selected drugs to confirm their effects on secretion, in this second set of assays, U2OS clone #7 cells incubated with secretion inhibitors were fixed and stained with Hoechst as described above for imaging and viability determination based on cell counts.
We next sought to use clone #7 in screening campaigns for the identification of drugs capable of enhancing or inhibiting antibody secretion. […] Cell counting was facilitated by nuclear counterstaining with Hoechst 33324 in order to assess viability and distinguish drug effects on the secretion kinetics from direct cytotoxicity and select relevant drugs for further characterization. […]

[2] = system: biotin-induced antibody release, U2OS clone #7 cells; experiment: Low-throughput validation by imaging of the biotin-induced antibody release (cytoplasmic GFP), clone #7; type: cell-based, human; conditions: FIG. 5C
Protocol: FIGS. 5A-5C show selection of potential enhancers of protein secretion. FIGS. 5A and 5B) show dot plot representations of drugs efficiency based on their Z-scores measured at low and high drug concentration (FIG. 5A, Prestwick library; FIG. 5B, ICCB Known Bioactives and TargetMol Autophagy libraries). Compounds selected for further characterization are listed. (FIG. 5C) Clone #7 was treated with the indicated compounds, fixed and analyzed as described in FIG. 4A legend.
FIG. 6A-6C show validation of enhancers of protein secretion.
U2OS clone #7 cells were seeded in black 384-well imaging plates (Greiner bio one), 2,000 cells/well, and incubated for 24 h at 37° C. in a humidified incubator with 5% CO2. Cells were treated on the next day with the compounds from either the Prestwick library at […], the ICCB Known Bioactives library at 1/100^e or 1/1000^e, or the autophagy compound library at 10 μM or 1 μM for 4 h. […] Cells were then fixed as described above and processed for subsequent automated image acquisition using a robot-assisted IXM XL BioImager (Molecular Devices, Sunnyvale, CA, USA) equipped with a Sola light source (Lumencor, Beaverton, OR, USA), adapted excitation and emission filters (Semrock) a 16-bit monochrome sCMOS PCO.edge 5.5 camera (PCO, Kelheim, Germany). A 20× PlanAPO objective (Nikon, Tokyo, Japan) was used to acquire a minimum of 4 view fields in each well. […] Nuclei were first detected using Hoechst 33342 signal and used as a marker to detect cytoplasmic areas based on GFP signal, allowing for the evaluation of cytoplasmic GFP intensity. Data were thereafter extracted and statistically evaluated using R (https://www.r-project.org). […]
Medium- and high-throughput screenings often yield false positive and negative hits, calling for independent validation in low-throughput experiments with orthogonal technologies. In a first round of experiments, we evaluated the effects of shortlisted compounds with potential antibody secretion enhancer activity. […]

[3] = system: RUSH antibody secretion, U2OS clone #7 cells; experiment: ELISA on immobilized PD-L1: RUSH antibody titer in supernatant of treated clone #7 cells; type: cell-based, human; conditions: PD-L1 binding ELISA
Protocol: FIGS. 7A and 7B show validation of inhibitors of protein secretion. […] Clone #7 cells were treated with the indicated compounds and supernatants were assayed for PD-L1 binding. Brefeldin A was used as a protein secretion inhibitor positive control. […] Hoechst 33324 fluorescence was measured, which enabled to number adherent living cells in each well.
U2OS clone #7 cells were seeded in 6-well plates and kept for 24 h at 37° C. in a humidified incubator with 5% CO2. The next day, the supernatants were removed, cells were rinsed with 37° C. pre-heated PBS and new medium containing the chemical treatment was added for 4 h. […] Then supernatants were collected and used for the ELISA assay as follows. MaxiSorp 96-well plates (Thermo Fisher Scientific) were coated with 0.5 μg/mL hFc-human-PD-L1 (R&D Systems, Minneapolis, MN) in PBS for 5.5 h at RT. Coating solution was then removed and 2% BSA/PBS blocking solution was added overnight at 4° C. The next day, wells were washed 3 times with 0.5% BSA/0.05% Tween-20/PBS solution. Supernatants were added after a ⅓ dilution in 0.5% BSA/0.05% Tween-20/PBS, for 2.3 h at RT. Wells were washed 3 times with 0.5% BSA/0.05% Tween-20/PBS solution. Anti-human kappa light chain HRP-coupled antibody was added diluted in 0.5% BSA/0.05% Tween-20/PBS at 1/4000^e for 2.3 h at RT. Wells were washed 3 times with 0.5% BSA/0.05% Tween-20/PBS solution before incubation with substrate reagents pack (R&D Systems) for 15 min in the dark. Fifty μL of STOP solution (R&D Systems) were then added to each well and the absorbance in each well was subsequently measured at 450 nm, and 635 nm for background subtraction, using a VICTOR™ X4 (PerkinElmer, Waltham, MA).
Medium- and high-throughput screenings often yield false positive and negative hits, calling for independent validation in low-throughput experiments with orthogonal technologies. In a first round of experiments, we evaluated the effects of shortlisted compounds with potential antibody secretion enhancer activity. Compounds identified in the screening campaigns were tested again on clone #7 at a low concentration (FIG. 6A) or a ten-fold higher concentration (FIG. 6B) for their ability to increase antibody secretion. […] We further characterized these hits in an PD-L1 binding ELISA.

SCAP = conditions: cited from earlier work
[4] = 4 h compound, then 40 μM biotin 1 h
[5] = ICCB Known Bioactives and TargetMol Autophagy libraries, 4 h compound, then 40 μM biotin 1 h

Molecule | secretion activator at both low and high concentration (consistently decreased fluorescent signal, among 20 best activators) [1, 4] | decrease of intracytoplasmic GFP fluorescence signal (biotin-stimulated RUSH system) [1] | further results
C[C@]12CC[C@H](O)C[C@H]1CC[C@@H]1[C@@H]2C[C@@H](O)[C@]2(C)[C@@H](C3=CC(=O)OC3)CC[C@]12O [digoxigenin, 3-[(3S,5R,8R,9S,10S,12R,13S,14S,17R)-3,12,14-trihydroxy-10,13-dimethyl-1,2,3,4,5,6,7,8,9,11,12,15,16,17-tetradecahydrocyclopenta[a]phenanthren-17-yl]-2H-furan-5-one] | fulfilled these criteria | consistently decreased intracytoplasmic GFP fluorescence | 
O[C@H]1[C@H]2c3cc4c(cc3CN3CCC(=C[C@@H]1O)[C@H]23)OCO4 [lycorine, 3,12-Didehydro-2′H-[1,3]dioxolo[4′,5′:9,10]galanthan-1α,2β-diol] |  | consistently decreased intracytoplasmic GFP fluorescence | efficiency as secretion activator, high concentration ([1]; ICCB Known Bioactives and TargetMol Autophagy libraries, high concentration): not among the 20 most active compounds at the high concentration; efficiency as secretion activator, low concentration ([1]; ICCB Known Bioactives and TargetMol Autophagy libraries, low concentration): more efficient than any other compound at low concentration; effect on secretion by cell imaging [2]: secretion activator effect; RUSH antibody titers in treated cell culture supernatant ([3]; summary): shown to increase RUSH antibody titers; effect on antibody secretion compared with sodium butyrate ([3]; 1 and 50 μM): milder than that of sodium butyrate; antibody secretion-stimulatory activity ([3]; lycorine tested at both 1 and 50 μM, 4 h compound, biotin 1 h): considered to be active; SCAP inhibition (SCAP; orally active): potent and orally active SCAP inhibitor; SCAP protein level (SCAP; without changing its transcription): downregulates
O=C(O)CCNC(=O)c1ccc(/N=N/c2ccc(O)c(C(=O)O)c2)cc1 [balsalazide sodium] | fulfilled these criteria |  | 
CC[C@H]1CN2CCc3cc(OC)c(OC)cc3[C@@H]2C[C@@H]1C[C@H]1NCCc2cc(OC)c(OC)cc21 [emetine] |  |  | activity as secretion activator at both low and high concentrations [1, 5]: active at both low and high concentrations
C[C@@H]1C[C@@H]([C@H](O)CC2CC(=O)NC(=O)C2)C(=O)[C@@H](C)C1 [cycloheximide, 4-[(2R)-2-[(1S,3S,5S)-3,5-dimethyl-2-oxocyclohexyl]-2-hydroxyethyl]piperidine-2,6-dione] | fulfilled these criteria | consistently decreased intracytoplasmic GFP fluorescence | 
C1N2CN3CN1CN(C2)C3 [methenamine, 1,3,5,7-tetrazatricyclo[3.3.1.13,7]decane] | fulfilled these criteria | consistently decreased intracytoplasmic GFP fluorescence | 
CCC1(CC)C(=O)C=CNC1=O [pyrithyldione, 3,3-diethyl-1H-pyridine-2,4-dione] | fulfilled these criteria | consistently decreased intracytoplasmic GFP fluorescence | 
O=C1CC(c2ccccc2)Oc2cc(O)cc(O)c21 (stereo not drawn) [pinocembrin, 5,7-Dihydroxy-2-phenyl-2,3-dihydro-4H-chromen-4-one] |  | consistently decreased intracytoplasmic GFP fluorescence | activity as secretion activator at both low and high concentrations [1, 5]: active at both low and high concentrations
C[C@H]1CCC/C=C/[C@@H]2C[C@H](O)C[C@H]2[C@H](O)/C=C/C(=O)O1 [brefeldin A] |  |  | inhibition of the biotin-induced decrease of the GFP signal ([1]; 4 h compound, then 40 μM biotin 1 h, screening): inhibited the biotin-induced decrease of the GFP signal
verteporfin | fulfilled these criteria |  | phototoxicity leading to GFP bleaching ([1]; data not shown): phototoxicity that leads to GFP bleaching
